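Compound exposure: 48 hours, 5 concentrations, 96-well plates. The concentration for 50% growth inhibition is given as GI50. TGI: concentration producing complete growth inhibition.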 Where a SMILES comes first, the peptide text is derived from it. The star is where a group is joined. Boc = CC(C)(C)OC(=O)*
Key:
Experiment in all cases: inhibition of tumour cell growth, NCI panel, 48 h
HOP-92 NSCLC = tested on: HOP-92 NSCLC
HCC-2998 colon = tested on: HCC-2998 colon
NCI-H23 lung = tested on: NCI-H23 lung
SNB-75 CNS = tested on: SNB-75 CNS
LOX IMVI melanoma = tested on: LOX IMVI melanoma
UACC-257 melanoma = tested on: UACC-257 melanoma
OVCAR-4 ovarian = tested on: OVCAR-4 ovarian
BT-549 breast = tested on: BT-549 breast
SK-OV-3 ovarian = tested on: SK-OV-3 ovarian
SW-620 colon = tested on: SW-620 colon
SK-MEL-28 melanoma = tested on: SK-MEL-28 melanoma
MALME-3M melanoma = tested on: MALME-3M melanoma
DU-145 prostate = tested on: DU-145 prostate
NCI-H522 lung = tested on: NCI-H522 lung
OVCAR-3 ovarian = tested on: OVCAR-3 ovarian
MDA-N = tested on: MDA-N

SMILES	TGI (HOP-92 NSCLC) [µM]	TGI (HCC-2998 colon) [µM]	TGI (NCI-H23 lung) [µM]	TGI (SNB-75 CNS) [µM]	TGI (LOX IMVI melanoma) [µM]	TGI (UACC-257 melanoma) [µM]	TGI (OVCAR-4 ovarian) [µM]	TGI (BT-549 breast) [µM]	TGI (SK-OV-3 ovarian) [µM]	TGI (SW-620 colon) [µM]	TGI (SK-MEL-28 melanoma) [µM]	TGI (MALME-3M melanoma) [µM]	TGI (DU-145 prostate) [µM]	TGI (NCI-H522 lung) [µM]	TGI (OVCAR-3 ovarian) [µM]	TGI (MDA-N) [µM]	GI50 (OVCAR-3 ovarian) [µM]
Brc1ccc2[nH]cc([C@@H]3CN[C@@H](c4c[nH]c5ccc(Br)cc45)CN3)c2c1	7.57	11.6	25.3	12.5	3.38	23.7	17.7	30.8	25.7	15.6	27.8	29.6	12.6	4.39	18.4		
CCNc1nc2c(=O)n(C)c(=O)n(C)c2s1	> 100	> 100	> 100	> 100	> 100	> 100	> 100		> 100	> 100	> 100	> 100		> 100	> 100		
CNC(=O)CNC(=O)C(NC(=O)CNC(=O)C1CCCN1C(=O)C(C)NC(=O)C(NC(=O)OC(C)(C)C)C(C)C)C(C)C (configuration not stated) (Boc-VAPGVG-NHMe; configuration not given here)	> 100	> 100	> 100	> 100	> 100	> 100	> 100		> 100	> 100	> 100	> 100	> 100	> 100	> 100	> 100	
CC(=O)c1cc2sc3ccccc3c2[nH]1	> 100	> 100	> 100				> 100		> 100	> 100	> 100	> 100	> 100	> 100	> 100	> 100	
Cc1ccc(NCCO)cc1	> 100		> 100	> 100	> 100	> 100	> 100		> 100	> 100	> 100	> 100		> 100	> 100		
N[C@@H]1c2c(Br)sc(Br)c2C(=O)[C@H]1Br	33	> 76.1	57.4	> 100	33.3	> 75.3	89.5	43.1	> 100	44.4	54.8	57.4	> 100	29	> 89.8		
N#Cc1nc(/C=C/c2cccs2)oc1N	> 100			> 100	> 100	> 100			> 100	> 100	> 100		> 100			> 100	
Nc1c2ccccc2nc2nccnc12	> 100	> 100	> 100	> 100	> 100	> 100	> 100		> 100	> 100	> 100	> 100		> 100	> 100		
COc1ccc(/C=C2\C(=O)Nc3ccccc32)cc1OC	> 100		> 100	81.3	> 100	> 100	> 100		> 100	> 100	> 100	> 100		> 100			
Cc1ccc(OC2CC(n3cnc4c(=O)[nH]c(Br)nc43)OC2Oc2ccc(C)cc2)cc1 (configuration not stated)	45.9	47.3	70.3		72	62.2	> 100	67.5	> 100	> 100		61.5	53.9	59.8	39.9		
O=C(CC(O)(C(F)(F)Cl)C(F)(F)Cl)CC(O)(C(F)(F)Cl)C(F)(F)Cl	3.04	> 10	4.29	9.7	> 10	6.17	9.67		5.89	> 10	> 10	4.36	> 10	> 10	> 10	> 10	
CNc1cccc(-c2cc(=O)c3cc4c(cc3[nH]2)OCO4)c1	> 100	1.38	7.28		> 72.2	> 100	> 100	> 100	1.07	> 100	> 100	> 100	8.87	0.443			
CN1CCN(Cn2nc(-c3ccccc3)n(/N=C/c3ccc(-c4ccc(Cl)cc4Cl)o3)c2=S)CC1	25.1	26.5	40.7		46.7	47.5	54.8		27.3	32.9	77.8		21	> 100	28.5	> 100	
COc1ccc(-c2cc(=O)c3cc4c(cc3[nH]2)OCO4)c(OC)c1	> 100	> 100	> 100	31.2	> 100		> 100		> 100	> 100	> 100	77.2		> 100	> 100		> 100
COc1cc(Br)cc2c1O[C@H]1C(=O)CC3CC21CCN3C (some centres not stated)		> 100	68.2		> 100	> 100		> 100	> 100	> 100	> 100	> 100			> 100	> 100	
CC[C@H](C)[C@H](NC(=O)[C@H](Cc1ccc(O)cc1)NCC(F)(F)F)C(=O)OC(C)(C)C	18.8	15.8	20.5	17.5	17.5	14.7	13.3	34.7	17.3	23	19.1	22.1		20.1		17.7	
